The values that follow come from PubChem BioAssay (NCI).

Test systems include SW-620 colon; BT-549 breast; HCT-15 colon; SN12C renal; NCI-H522 lung; CAKI-1 renal; OVCAR-3 ovarian; A498 renal; UACC-62 melanoma; K-562 leukemia.
Assay in all cases: inhibition of tumour cell growth, NCI panel, 48 h

The structures appear in SMILES notation.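 Assay format: 96-well plates, 48-hour exposure. The concentration for 50% growth inhibition is given as GI50. TGI marks complete inhibition of growth.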

`CNC(=O)c1ccc(-c2cnc3ncc(Cc4ccc5ncccc5c4)n3n2)cc1F`: the GI50 was greater than 100 µM in the test on SW-620 colon; greater than 100 µM in the test with BT-549 breast; greater than 100 µM in the test with HCT-15 colon; greater than 100 µM with SN12C renal; 38 µM in the test with NCI-H522 lung; greater than 100 µM in the test with CAKI-1 renal. Also, the GI50 in the test on OVCAR-3 ovarian, in the test on A498 renal, in the test with UACC-62 melanoma and in the test on K-562 leukemia was greater than 100 µM each time. The TGI in the test on SW-620 colon, in the test with BT-549 breast, in the test on HCT-15 colon, in the test on SN12C renal, in the test with NCI-H522 lung and in the test on CAKI-1 renal was greater than 100 µM in each case. In addition, the TGI in the test with OVCAR-3 ovarian, in the test with A498 renal, in the test on UACC-62 melanoma and with K-562 leukemia was greater than 100 µM throughout.

Consider `C=CCOc1c(Br)cc(Br)cc1Br`, for which the GI50 with SW-620 colon is 22.6 µM; with BT-549 breast, 35.5 µM; in the test with HCT-15 colon, 16.7 µM; with SN12C renal, 30 µM; with NCI-H522 lung, 4.68 µM; with CAKI-1 renal it was 13 µM. The GI50 in the test on OVCAR-3 ovarian was 3.12 µM; in the test with A498 renal it was 8.49 µM; with UACC-62 melanoma, 4.8 µM; in the test with K-562 leukemia, 7.92 µM. Besides, the TGI was 89.4 µM in the test with SW-620 colon; greater than 100 µM in the test with BT-549 breast; greater than 100 µM in the test with HCT-15 colon; greater than 100 µM in the test on SN12C renal; 30.7 µM in the test with NCI-H522 lung; 83.6 µM in the test with CAKI-1 renal. Further, the TGI in the test with OVCAR-3 ovarian is 17.2 µM; with A498 renal, greater than 100 µM; in the test on UACC-62 melanoma it was 91.7 µM; with K-562 leukemia, greater than 100 µM.

As for `CC1=C(C)C(=O)O[C@@H]([C@](C)(O)[C@]2(O)CC[C@@]3(O)[C@@H]4C[C@H]5O[C@]56CC=CC(=O)[C@]6(C)[C@H]4CC[C@]23C)C1`, the GI50 was 0.0989 µM with SW-620 colon; 0.335 µM with BT-549 breast; 0.152 µM in the test with HCT-15 colon; 0.411 µM in the test with SN12C renal; 0.1 µM in the test with NCI-H522 lung; 0.18 µM in the test on CAKI-1 renal. In addition, the GI50 with OVCAR-3 ovarian was 0.0667 µM; in the test with A498 renal, 0.218 µM; in the test on UACC-62 melanoma, 0.0996 µM; in the test on K-562 leukemia, 0.0907 µM. In addition, the TGI was found to be 1.1 µM with SW-620 colon; 1.45 µM with BT-549 breast; 1.25 µM with HCT-15 colon; 3.63 µM in the test on SN12C renal; 0.534 µM in the test with NCI-H522 lung; 2.11 µM in the test on CAKI-1 renal. Also, the TGI in the test on OVCAR-3 ovarian is 0.405 µM; with A498 renal, 0.784 µM; with UACC-62 melanoma, 1.57 µM; with K-562 leukemia, greater than 27.8 µM.

Consider `CNc1nc(NC2CCCC2)nc(Sc2ccc(OC)cc2)n1`, for which the GI50 with SW-620 colon, in the test on BT-549 breast, with HCT-15 colon, in the test on SN12C renal, in the test on NCI-H522 lung and in the test with CAKI-1 renal was greater than 10 µM each time. Besides, the GI50 in the test on OVCAR-3 ovarian, in the test with A498 renal, in the test on UACC-62 melanoma and with K-562 leukemia was greater than 10 µM throughout. For the same compound, the TGI with SW-620 colon, with BT-549 breast, in the test with HCT-15 colon, in the test on SN12C renal, in the test on NCI-H522 lung and in the test on CAKI-1 renal was greater than 10 µM throughout. Also, the TGI in the test on OVCAR-3 ovarian, in the test on A498 renal, with UACC-62 melanoma and in the test with K-562 leukemia was greater than 10 µM throughout.

As for `COC(=O)c1c(O)ccc2[nH]c(C)c(C#N)c12`, the GI50 in the test with SW-620 colon is 45.4 µM; with BT-549 breast, 64 µM; in the test with HCT-15 colon, 42.1 µM; in the test on SN12C renal it was 49 µM; with NCI-H522 lung, 83.4 µM; with CAKI-1 renal, 30.4 µM. Further, the GI50 with OVCAR-3 ovarian is 31.4 µM; in the test on A498 renal, 20.7 µM; in the test on UACC-62 melanoma, 25.7 µM; in the test on K-562 leukemia, 55.3 µM. For the same compound, the TGI was greater than 100 µM in the test on SW-620 colon; greater than 100 µM in the test with BT-549 breast; greater than 100 µM in the test on HCT-15 colon; greater than 100 µM in the test with SN12C renal; greater than 100 µM in the test on NCI-H522 lung; 90.1 µM with CAKI-1 renal. Also, the TGI in the test on OVCAR-3 ovarian is greater than 100 µM; in the test on A498 renal, 54.2 µM; in the test with UACC-62 melanoma, 90.4 µM; with K-562 leukemia, greater than 100 µM.
